Test [1] concerns Hes1 in DND41-Parental cells. The test is described as follows: Hes1 Western blot in DND41-Parental cells. The note with it: 24 hours. Format: cell-based, human. How it is done: Cells were lysed in RIPA buffer (50 mM Tris.Cl, pH 7.5, 150 mM NaCl, 1% nonidet P-40, 0.5% sodium deoxycholate and 0.1% SDS) for 30 minutes at 4° C. Lysed cells were centrifuged to remove the debris at 14000 rpm at 4° C. Supernatant was transferred to a new eppendorf tube. The protein concentration was determined by Bradford assay using spectrophotometer (Ultrospec 3000 pro). 40 μg of protein were denatured in 1×SDS gel loading buffer (100 mM Tris.Cl, pH 6.8, 200 mM DTT, 4% SDS, 0.2% bromophenol, 20% glycerol) by heating at 99° C. for 5 minutes. Denatured protein samples were stored on ice until loading on to the acrylamide gel. The samples were run on 8% or 10% acrylamide gel in Tris-glycine electrophoresis buffer (25 mM Tris, 250 mM glycine, 0.1% SDS). […]
For immunoblotting, membranes were blocked with 5% milk and incubated overnight with primary antibodies at 4° C. […] Signal was detected with Super Signal West chemiluminescent substrate (Thermo Scientific, catalog number 34077).
6-(4-Tert-Butylphenoxy)Pyridin-3-Amine (I3) can block NICD mediated activation of the Notch pathway (FIGS. 1A-D). […] In addition, these two cell lines were also monitored over several days for anti-proliferative effects of 6-(4-Tert-Butylphenoxy)Pyridin-3-Amine (I3) and DAPT.

Test [2] concerns RPMI 8402. The test is described as follows: Alamar blue proliferation assay, RPMI 8402. The class given is cell-based, human. To be noted: 10 μM, up to 6 days. How it is done: Human T-ALL cell lines RPMI 8402 and KOPTK1, and pancreatic cancer cell line PANC1 as well as nRas driven melanoma cells were seeded in a 96 well plate and treated with 10 μM concentration of 6-(4-Tert-Butylphenoxy)Pyridin-3-Amine (I3) and DAPT for several days. Their growth inhibitory effects were compared with cells treated with equal amount of DMSO. Using Alamar blue assay, the growth kinetics of RPMI 8402 and KOPTK1 were followed for upto 6 days, while PANC1 and nRas melanoma cells were monitored for 4 days. 6-(4-Tert-Butylphenoxy)Pyridin-3-Amine (I3) treatment of RPMI 8402, KOPTK1. […] Statistical analyses were done using student's t.test. *=p value<0.05. ns=not significant.
Alamarblue® proliferation assays were performed to determine the growth kinetics of Notch inhibitor treated cells. Alamar Blue® consists of a cell permeable substrate resazurin. In metabolically active and proliferating cells, resazurin is converted to resorufin due to an intrinsic reducing power of live cells and produces a red fluorescence. Therefore production of resorufin serves as an indicator of the viability of the cell population.
Proliferation assays were performed by seeding 5000 cells/well in a 96 well plate. Cells were treated with DMSO or Notch inhibitors for different time intervals. […] Alamarblue readout was taken using Tecan F500 (Tecan) multiplate reader. […]
In general terms: The colour change of resazurin is a common sign of viable cells or microbes.

“Also recorded” adds a separate entry of the source.

Turning to `C[C@H](NC(=O)Cc1cc(F)cc(F)c1)C(=O)N[C@H](C(=O)OC(C)(C)C)c1ccccc1` [DAPT, N—[N-(3,5-difluorophenacetyl-Lalanyl)]-(S)-phenylglycine t-butyl ester, reference compound], in test [1], the Hes1 protein result is given as “led to a downregulation of Hes1; also recorded: caused a downregulation of Hes1 in DND41-Parental cells”. In addition, the “proliferation (Alamar blue)” value in test [2] is on record as “induced a significant proliferation block”.

In the case of `CC(C)(C)c1ccc(Oc2ccc(N)cn2)cc1` [I3, 6-(4-Tert-Butylphenoxy)Pyridin-3-Amine], the Hes1 protein result in test [1] was “led to a downregulation of Hes1; also recorded: caused a downregulation of Hes1 in DND41-Parental cells”. Moreover, the “proliferation (Alamar blue)” value in test [2] is given as “induced a significant proliferation block; also recorded: caused a significant reduction in their growth potential”.

The values are drawn from patent US10054581B1, “Inhibitors of notch signaling pathway and use thereof in treatment of cancers” (Ecole Polytechnique Federale de Lausanne (EPFL), priority 2011, dated 2018).
